Test results reported in patent US10351539B2, “Macrocyclic complexes, their process of preparation and use as PET imaging agents” (INSTITUT NATIONAL DE LA SANTE ET DE LA RECHERCHE MEDICALE …, priority 2014, dated 2019).

Assay: Biodistribution in healthy and SRC bearing rats at 1 h after i.v. injection of radiolabelled compounds
Format: in vivo
Conditions: mean ± SD (n = 3); for Articular Cartilage / Bladder / Blood / Kidney / Muscle / Liver: healthy and SRC bearing rats; for Liver: ND: at undetectable levels; for Tumor: SRC (Swarm Rat Chondrosarcoma) bearing rats
Protocol: Quantitative biodistribution of radiolabelled compounds was determined in rats: healthy animals as well as rats with primary grade II orthotopic chondrosarcoma at stage Day-30 after induction. The chondrosarcoma model was the Swarm Rat Chondrosarcoma model (SRC) implanted in paratibial location. Radiolabelled compounds (5-10 Mbq/animal) were i.v. administered in the caudal vein of animals being anesthetized of mixture of ketamine (58 mg/kg i.p.) (Imalgéne 500®) and xylazine (6 mg/kg i.p.) (Rompun® 2%, Bayer, France). One hour after injection, animals were then sacrificed by CO2 inhalation, dissected and organs of interest removed, weighed and their radioactivity counted using a gamma counter (Model 1480 Wizard, Perkin Elmer Life Sciences, Boston, USA). Organs collected were blood, muscle, knee, kidneys, liver, thoracic ribs, bladder for both healthy and chondrosarcoma bearing rats. For SRC animals, tumour was also sampled. After radioactive decay correction, results were expressed for each organ as % injected dose per gram (% ID/g) and averaged per group.

In the case of `CC[N+](CC)(CC)CCCN1CCCN2CCN(CCCN(CC(=O)OC(C)(C)C)CC1)CC2.[64Cu+2]` [^64Cu-13, [^64Cu]-3-(8-(2-tert-Butoxy-2-oxoethyl)-1,5,8,12-tetraazabicyclo[10.2.2]hexadecan-5-yl)-N,N,N-triethylpropan-1-aminium copper(II)], the Articular Cartilage is reported as 0.16 ± 0.06 % ID/g, the Bladder is reported as 11.83 % ID/g and the Blood is reported as 0.07 ± 0.01 % ID/g. For the same compound, the Kidney was 1.06 ± 0.66 % ID/g, the Muscle was 0.03 ± 0.01 % ID/g and the Liver was 0.06 ± 0.01 % ID/g.

Work on `CC[N+](CC)(CC)CCCN1CCCN2CCN(CCCN(CC(=O)O)CC1)CC2.[64Cu+2]` [^64Cu-14, [^64Cu]-3-(8-(Carboxymethyl)-1,5,8,12-tetraazabicyclo[10.2.2]hexadecan-5-yl)-N,N,N-triethylpropan-1-aminium copper(II)] yielded an Articular Cartilage of 0.11 ± 0.02 % ID/g, a Bladder of 14.71 % ID/g and a Blood of 0.09 ± 0.04 % ID/g. It also gave a Kidney of 0.73 ± 0.22 % ID/g, a Muscle of 0.04 ± 0.00 % ID/g and a Liver of 0.06 ± 0.02 % ID/g.

With `CC[N+](CC)(CC)CCCN1CCCNCCN(Cc2ccccn2)CCCNCC1.[64Cu+2]` [^64Cu-27, [^64Cu]—N,N,N-Triethyl-3-(8-(pyridin-2-ylmethyl)-1,4,8,11-tetraazacyclotetradecan-1-yl)propan-1-aminium copper(II)] the Tumor was 1.4 ± 0.07 % ID/g, the Articular Cartilage was 1.5 ± 0.4 % ID/g and the Bladder was 30.5 ± 10.9 % ID/g. It also gave a Blood of 0.4 ± 0.07 % ID/g, a Kidney of 7.6 ± 4.6 % ID/g and a Muscle of 0.43 ± 0.15 % ID/g. For the same compound, the Liver was 1.2 ± 0.4 % ID/g.

`CC[N+](CC)(CC)CCCN1CCCN(Cc2ccccn2)CCNCCCN(Cc2ccccn2)CC1.[64Cu+2]` [^64Cu-30, [^64Cu]-3-(4,11-Bis(pyridin-2-ylmethyl)-1,4,8,11-tetraazacyclotetradecan-1-yl)-N,N,N-triethylpropan-1-aminium copper(II)] gave a Tumor of 4.2 ± 0.6 % ID/g, an Articular Cartilage of 2.7 ± 0.4 % ID/g and a Bladder of 25.2 ± 10.6 % ID/g. The Blood was 0.7 ± 0.2 % ID/g, the Kidney was 9.2 ± 0.9 % ID/g and the Muscle was 0.80 ± 0.4 % ID/g.
